One data set deals with HSV-1 McKrae Strain. The data set is described as follows: Direct virucidal efficacy against HSV-1 on HFF monolayers. The class given is cell-based. To be noted: for virucidal efficacy (HSV-1 titer): Experiment 5 (Table 12), 24 h PI. As for the experimental part: HSV-1 McKrae Strain was diluted to a final concentration of 10^5 PFU/ml in minimal essential medium (MEM). Hereinafter, this dilution is referred to as the HSV-1 Suspension for convenience.
(§1) With sufficient stirring, all the compounds completely dissolved.
Each of the drug solutions were mixed with the HSV-1 Suspension in a 1:1 ratio. The drug and HSV-1 Suspension mixture was incubated at 37° C. for thirty minutes with agitation every ten minutes. After the incubation, fifty microliter aliquots were overlaid onto triplicate confluent human foreskin fibroblast (HFF) cell monolayers. The inoculum was absorbed for thirty minutes and then a medium containing the appropriate drug concentration in MEM was added to the monolayers to a final volume of 0.5 milliliters per culture-well. The monolayers were incubated at 37° C. The developing HSV-1 Cytopathology was monitored daily for two days by inverted light microscopy. Titers were calculated by multiple regression analysis. All data is presented as the average PFU/ml reduction at 24 and/or 48 hours after inoculation (PI).
1. HSV-1 inoculated, non-compound treated HFF monolayers were included as "positive controls"; and […]

In data set [1] the test system is human foreskin fibroblast (HFF) cell monolayers. Description: Toxicity effects controls: sham-inoculated compound-treated HFF monolayers. Note: key: +: toxic; -: no toxicity; ±: mild toxicity; T: toxicity effects interfered with CPE rating. Type of data set: cell-based. To be noted: Experiment 5 (Table 13).
Text: as §1
In the tables, the symbols have the meaning indicated: […]

The subject of data set [2] is RE strain HSV-1. The data set is described as follows: HSV-1 recovery from tear film, cornea and trigeminal ganglia of treated rabbits. The class given is in vivo, NZW rabbit. An excerpt:
The specified number of NZW rabbits (1.5-2.0 kg) were used. Animals were received at least two days prior to inoculation to allow them to accommodate to the conditions in the vivarium facility. This conditioning of the animals prior to inoculation minimizes animal variability. After the accommodation, the animals received a slit-lamp examination to exclude any animals with pre-existing anterior segment ocular defects. Animals were bi-laterally inoculated by intrastromal injection of 10^5 PFU RE strain HSV-1. The animals were then replaced individually into cages.
[…] This was carried out by obtaining tear film by swabbing the lower and upper conjunctival sacs and retaining the swab in the nasal fornix for 10 seconds. The swabs were eluted individually in HBSS. 50 μl aliquots of the virus-HBSS eluate were absorbed under confluent HFF cell monolayers for 5 minutes. The monolayers were hydrated with MEM, incubated at 37° C. and observed daily for 1 to 2 weeks to detect developing cytopathology consistent with HSV infection (HSV CPE).
On day 10 PI, the animals were sacrificed, the corneal epithelium was scraped from the eyes and epithelial and corneal stromal cultures were preformed on HFF cell monolayers. The separation of epithelial virus from deeper stromal virus infection allows for analysis of HSV in these distinct corneal layers. Corneal epithelial and stromal co-cultures were evaluated daily by inverted light microscopy.
At sacrifice, trigeminal ganglia were removed, washed in HBSS, minced and floated over duplicate HFF cell monolayers. The cell co-cultures were monitored by inverted light microscopy for 2 weeks. Negative cultures were blind passaged twice at 7 day intervals. Detection of HSV CPE in the whole-cell co-cultures was scored either positive or negative. HSV recovery from inventive compound-treated, TFT-treated and placebo-treated trigeminal ganglia was compared and differences in recovery rates analyzed.
On day 7 PI, the animals were sacrificed, the corneal epithelium was scraped from the eyes and epithelial and corneal stromal cultures were performed on HFF cell monolayers. The separation of epithelial virus from deeper stromal virus infection allows for analysis of HSV in these distinct corneal layers. Corneal epithelial and stromal co-cultures were evaluated daily by inverted light microscopy.

Data set [3] deals with RE strain HSV-1. The data set is described as follows: Topical efficacy in RE strain HSV-1-induced stromal keratitis in the rabbit. Type of data set: in vivo, NZW rabbit. On the procedure: The following examples describe topical ocular evaluation of the inventive compounds during RE strain HSV-1-induced stromal keratitis in the rabbit. These evaluations included analysis of the topical efficacy of both the inventive compounds alone, or, in certain instances, in combination with trifluorothymidine (TFT). The evaluation was carried out by the combined analysis of both clinical and virological (HSV-1 recovery) parameters. The specified number of NZW rabbits (1.5-2.0 kg) were used. Animals were received at least two days prior to inoculation to allow them to accommodate to the conditions in the vivarium facility. This conditioning of the animals prior to inoculation minimizes animal variability. After the accommodation, the animals received a slit-lamp examination to exclude any animals with pre-existing anterior segment ocular defects. Animals were bi-laterally inoculated by intrastromal injection of 10^5 PFU RE strain HSV-1. The animals were then replaced individually into cages. On day number three post-inoculation (PI), the animals were evaluated by slit-lamp microscopy. Corneal stromal, iris and conjunctival disease were graded on an increasing scale of severity from 0+ to 4+. After evaluation, the animals were divided into a specified number of groups each containing an equal number of animals based on a matched corneal stromal involvement. Topical therapy was initiated immediately after animal groupings. All animals received daily slit-lamp evaluations from day 3 through 7 PI. The ocular HSV-1 induced disease severity was recorded daily. […] Differences in disease resolution and development of stromal alterations are statistically analyzed. Virus recovery during and after topical therapy was compared. The topical efficacy of Compounds 23 and 96 on stromal HSV-1 infection in the rabbit model of stromal keratitis was evaluated. All animals received daily slit lamp evaluations from day 3 through day 7 and on days 9 and 10 PI. The ocular HSV-1-induced disease severity was recorded daily. The topical efficacy of Compounds 23, 96 and 82 on stromal HSV-1 infection in the rabbit model of stromal keratitis was evaluated. All animals received daily slit lamp evaluations for day 3 through day 7 PI. The ocular HSV-1-induced disease severity was recorded daily. The topical efficacy of Compounds 23 and 96 in combination with TFT on stromal HSV-1 infection in the rabbit model of stromal keratitis was evaluated. Groups 1, 2 and 3 each have 5 animals for a total of 10 eyes per combination therapy. This allowed minimization of individual animal variability and performance of a statistical analysis on the results of the combination therapies. Groups 3, 4 and 5 have 2 animals each. These single-agent therapies were used to verify previously reported data on the efficacy of these compounds. The compounds are used at a lower frequency of delivery to match the dosing regimen of the combination-agent group. Consequently, the study also provides comparative information on Compounds 23 and 96 as a lower frequency of topical administration (4 times per day vs. 9 times per day in previous studies).

Regarding `CC([O-])=CC(C)=NCCN=C(C)C=C(C)[O-].Cc1cnc[nH]1.Cc1cnc[nH]1.[Br-].[Co+3]` [Compound 97], the “virucidal efficacy (HSV-1 titer)” value is 10^5 PFU/ml with HSV-1 McKrae Strain (Run 1, 0.0001 mg/ml); 10^5 PFU/ml in the data set on HSV-1 McKrae Strain (Run 1, 0.001 mg/ml); 10^4 PFU/ml with HSV-1 McKrae Strain (Run 1, 0.01 mg/ml); 10^1 PFU/ml in the data set on HSV-1 McKrae Strain (Run 1, 0.1 mg/ml); 0 PFU/ml in the data set on HSV-1 McKrae Strain (Run 1, 1 mg/ml); 0 PFU/ml in the data set on HSV-1 McKrae Strain (Run 1, 5 mg/ml). The “virucidal efficacy (HSV-1 titer)” value in the data set with HSV-1 McKrae Strain (Run 2, 0.001 mg/ml) is on record as 10^4 PFU/ml; in the data set with HSV-1 McKrae Strain (Run 2, 0.01 mg/ml), 10^1 PFU/ml; with HSV-1 McKrae Strain (Run 2, 0.1 mg/ml), 0 PFU/ml; in the data set on HSV-1 McKrae Strain (Run 2, 1 mg/ml) it was 0 PFU/ml; in the data set with HSV-1 McKrae Strain (Run 2, 5 mg/ml), 0 PFU/ml. Besides, the “effective virucidal concentration IC50” value in the data set with HSV-1 McKrae Strain (Experiment 5 (Table 14), HSV-1) was 0.1-.1 mg/ml. Also, in the data set with HSV-1 McKrae Strain (Experiment 5 (Table 14), HSV-1), the “effective virucidal concentration IC90” value lay in the range of 100 to 1000 µg/mL. Further, the toxicity effects result was “-” in data set [1] (24 h, 0.00 mg/ml (so in the source)); “-” in data set [1] (24 h, 0.01 mg/ml); “-” in data set [1] (24 h, 0.5 mg/ml); “-” in data set [1] (48 h, 0.00 mg/ml (so in the source)); “-” in data set [1] (48 h, 0.01 mg/ml); “-” in data set [1] (48 h, 0.5 mg/ml). For the same compound, the toxicity effects entry in data set [1] (48 h, 5 mg/ml) is listed as “+”.

Consider `O=c1[nH]c(=O)n([C@H]2C[C@H](O)[C@@H](CO)O2)cc1C(F)(F)F` [TFT, trifluorothymidine], for which the “HSV-1 recovery, corneal epithelium (C.E.)” value in the data set with RE strain HSV-1 [2] (Example 3 (Table 22)) is on record as 60%. The “HSV-1 recovery, corneal stroma (C.S.)” value with RE strain HSV-1 [2] (Example 3 (Table 22)) is recorded as 60%. Also, the “HSV-1 recovery, trigeminal ganglia (T.G.)” value in the data set on RE strain HSV-1 [2] (Example 3 (Table 22)) was determined as 60%. The “HSV-1 recovery, tear film (positive samples of total)” value was found to be 100% in the data set on RE strain HSV-1 [2] (Example 3 (Table 22), day 3 PI); 80% in the data set on RE strain HSV-1 [2] (Example 3 (Table 22), day 5 PI); 30% with RE strain HSV-1 [2] (Example 3 (Table 22), day 7 PI); 0% in the data set on RE strain HSV-1 [2] (Example 3 (Table 22), day 9 PI). Besides, in the data set with RE strain HSV-1 [2] (Example 5 (Table 23)), the “HSV-1 recovery, corneal stroma” value stood at 70%. The “HSV-1 recovery (positive cultures per total)” value with RE strain HSV-1 [2] (Example 5 (Table 23), column 1) worked out at 0%; with RE strain HSV-1 [2] (Example 5 (Table 23), column 3) it was 100%; in the data set with RE strain HSV-1 [2] (Example 5 (Table 23), column 5), 90%; in the data set on RE strain HSV-1 [2] (Example 5 (Table 23), column 7), 70%. Besides, the “efficacy ranking during stromal HSV-1 infection” value in the data set on RE strain HSV-1 [3] (Example 3, all eyes, FIG. 1, 1 mg/ml (TFT 0.1%), 9x/day, 5 days) is recorded as “Compound 96>>Compound 23>TFT>Placebo”. Besides, the “efficacy ranking, average stromal disease scores” value in the data set with RE strain HSV-1 [3] (Example 4, FIG. 2) is recorded as “Compound 96>Compound 82>Compound 23>TFT=Placebo”. The “effect on stromal disease severity/progression” value in the data set with RE strain HSV-1 [3] (Example 5, FIG. 5, initial stromal disease <0.5 on day 3 PI) is reported as “ineffective in reducing the stromal disease severity”. In the data set with RE strain HSV-1 [3] (Example 5, FIG. 7, score <0.5 on day 3 PI, 4 times per day), the “effect on development and progression of stromal disease” value is “ineffective in reducing the development and progression of stromal disease”.

The values above are taken from patent publication US5756491A, “Antiviral cobalt-organic compounds” (priority 1991, dated 1998).
